Data from patent US20250236607A1, “CYCLIN-DEPENDENT KINASE 9 (CDK9) DEGRADERS AND METHODS OF USING THEREOF” (OHIO STATE INNOVATION FOUNDATION, priority 2022, published 2025).
≈ marks a conversion by molar mass, not a printed value. Like-named read-outs stand apart in the source and are kept apart here.

What was measured:
[1] = Chromatographic log D determination (log k′80); format: physicochemical; conditions: chromatographic log D, PLRP-S column, pH 7.72
Description: Chromatographic Log D Determination. Test samples were prepared from 10 mM stock solutions in DMSO, to make 122 μM solutions in acetonitrile. Retention times were determined on a Shimadzu High Performance Liquid Chromatography (HPLC) system with Agilent PLRP-S column, 100 Å, 5 um particle size, 50×4.6 mm (part no.: PL1512-1500) with 1 mL/min flow rate. A 65 mM aqueous solution of ammonium acetate was prepared in water and diluted with acetonitrile to give 0.1% ammonium acetate 20:80 acetonitrile solution with pH 7.72. Eluents were detected with UV spectrophotometry at 337 nm. As a standard set, the retention times of β-estradiol, nifedipine, quinoline, phenol and 2-nitrophenol were determined (log k′80) and the dead time was extrapolated based on the reported log k′80 values originally reported by Caron et. al (log k′80*). The average value of the dead time for the standard set was 0.3001 minutes. Therefore, for consistency, 0.3 minutes was used as the dead time for all test samples. Experiments were performed in triplicate with a maximum percent standard deviation of 6.85%.

CDK9 = biological target: T1, CDK9 (Homo sapiens, UniProt P50750+Q96SW2); assay: CDK9 degradation potency (DC50) of VIP152-based degraders; format: cell-based; conditions: VIP152-based series
T1 construct: endogenous in cells
Text: (§1) Through amide coupling using I-ethyl-3-carbodiimide hydrochloride (EDC.HCl), the alkynyl derivatives of 4.16, 4.29 and 4.30 were synthesized. Using these VIP152-derivatives, degraders 4.31, 4.33 and 4.34 were synthesized using click chemistry. Degrader 4.32 was also synthesized using amide coupling conditions with (1-[Bis([…])methylene]-1H-1,2,3-triazolo[4,5-b]pyridinium 3-oxide hexafluorophosphate (HATU) and the carboxylic acid 4.28. Scheme 7 illustrates the synthesis of this initial series. The series was evaluated for cytotoxicity against MOLM13 cells (IC50) and for their CDK9 degradation potency (DC50). The results are provided in Table 3.

MOLM13 cells = assay: Cytotoxicity against MOLM13 cells; format: cell-based; conditions: MOLM13 cells, read-out: IC50
Text: as §1

Kinetic solubility assay = conditions: kinetic solubility, PBS pH 7.4; for solubility at 1.5 h: phosphate buffered saline, pH 7.4, aqueous buffer, kinetic from dmso stock, Solubility (μM)
Description: Kinetic Solubility Assay. Kinetic solubility (KS) was measured according to Millipore protocol PC2445 EN00. Test compounds were weighed and diluted with DMSO to 10 mM. From the stock solutions as well as blank (100% DMSO) was taken 17.5 μL and diluted to 500 μM with 332.5 μL of 100 mM phosphate Buffered Saline (PPBS) at pH 7.4 in a 96-well quartz plate. From the 500 μM solutions was taken 150 μL and dispensed into a 96-well Millipore filter plate (Product number: MSSLBPC10). In the quartz plate, serial dilutions were performed down to 0.5 μM using the 100 mM PBS solution, leaving 100 μL of each test sample at 11 different concentrations, representing standards. These steps were performed in triplicate, at minimum, for each test compound. Both plates were shaken on an orbital shaker at 150 rpm for 1.5 hours. The contents of the filter plate were filtered and 100 μL of the filtrate from each well was dispensed into the quartz plate containing standards. The quartz plate was then analyzed using a UV plate reader where absorbance was measured at the relevant wavelength for each compound. After blank subtraction, for each test sample, solubility was determined based on the optical density of filtered samples and the equations derived from the corresponding linear standard curve.

[2] = Homo sapiens, MOLM-13, cytotoxicity

T1 sequence (P50750 whole entry): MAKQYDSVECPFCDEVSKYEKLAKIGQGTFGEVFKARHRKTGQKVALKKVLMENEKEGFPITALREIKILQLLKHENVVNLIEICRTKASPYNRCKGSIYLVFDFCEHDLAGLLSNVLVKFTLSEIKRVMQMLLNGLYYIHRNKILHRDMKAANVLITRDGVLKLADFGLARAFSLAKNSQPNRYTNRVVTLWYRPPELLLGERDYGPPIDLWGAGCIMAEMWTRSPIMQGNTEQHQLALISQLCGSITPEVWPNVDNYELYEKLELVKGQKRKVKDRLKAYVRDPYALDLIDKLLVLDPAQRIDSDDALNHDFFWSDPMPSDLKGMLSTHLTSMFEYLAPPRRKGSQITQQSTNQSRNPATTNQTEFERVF
T1 sequence (O60563 whole entry partner): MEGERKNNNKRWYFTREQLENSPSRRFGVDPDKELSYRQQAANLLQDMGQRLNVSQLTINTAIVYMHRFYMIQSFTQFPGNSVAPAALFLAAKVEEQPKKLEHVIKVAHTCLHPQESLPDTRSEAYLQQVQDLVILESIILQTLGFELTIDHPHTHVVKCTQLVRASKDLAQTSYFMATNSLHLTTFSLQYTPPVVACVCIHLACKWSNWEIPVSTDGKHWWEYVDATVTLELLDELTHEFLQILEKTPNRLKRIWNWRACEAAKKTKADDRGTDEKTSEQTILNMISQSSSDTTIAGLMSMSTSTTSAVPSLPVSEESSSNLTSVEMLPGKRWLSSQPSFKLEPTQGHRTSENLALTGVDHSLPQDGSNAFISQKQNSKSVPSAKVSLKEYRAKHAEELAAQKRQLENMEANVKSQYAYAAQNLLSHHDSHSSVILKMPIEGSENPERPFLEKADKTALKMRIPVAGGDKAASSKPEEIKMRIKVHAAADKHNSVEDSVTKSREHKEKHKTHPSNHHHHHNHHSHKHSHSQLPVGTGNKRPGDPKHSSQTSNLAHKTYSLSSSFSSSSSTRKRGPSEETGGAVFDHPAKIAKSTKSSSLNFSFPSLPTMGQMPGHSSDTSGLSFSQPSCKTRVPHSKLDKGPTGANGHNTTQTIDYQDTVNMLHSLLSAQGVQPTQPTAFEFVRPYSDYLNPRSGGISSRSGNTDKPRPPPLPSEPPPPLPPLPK
T1 sequence (Q96SW2 whole entry): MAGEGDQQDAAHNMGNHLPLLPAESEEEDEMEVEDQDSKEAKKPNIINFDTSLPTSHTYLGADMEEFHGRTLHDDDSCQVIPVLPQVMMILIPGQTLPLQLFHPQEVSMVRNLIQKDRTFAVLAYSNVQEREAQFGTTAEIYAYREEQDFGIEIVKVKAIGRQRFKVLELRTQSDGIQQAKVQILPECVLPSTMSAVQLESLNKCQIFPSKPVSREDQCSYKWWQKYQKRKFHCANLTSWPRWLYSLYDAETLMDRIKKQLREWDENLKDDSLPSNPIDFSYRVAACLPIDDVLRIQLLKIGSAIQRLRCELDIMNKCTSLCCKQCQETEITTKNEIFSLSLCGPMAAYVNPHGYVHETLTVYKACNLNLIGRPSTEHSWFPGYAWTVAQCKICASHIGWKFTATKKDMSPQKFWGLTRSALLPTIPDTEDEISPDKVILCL
T1 sequence (Q16531 whole entry partner): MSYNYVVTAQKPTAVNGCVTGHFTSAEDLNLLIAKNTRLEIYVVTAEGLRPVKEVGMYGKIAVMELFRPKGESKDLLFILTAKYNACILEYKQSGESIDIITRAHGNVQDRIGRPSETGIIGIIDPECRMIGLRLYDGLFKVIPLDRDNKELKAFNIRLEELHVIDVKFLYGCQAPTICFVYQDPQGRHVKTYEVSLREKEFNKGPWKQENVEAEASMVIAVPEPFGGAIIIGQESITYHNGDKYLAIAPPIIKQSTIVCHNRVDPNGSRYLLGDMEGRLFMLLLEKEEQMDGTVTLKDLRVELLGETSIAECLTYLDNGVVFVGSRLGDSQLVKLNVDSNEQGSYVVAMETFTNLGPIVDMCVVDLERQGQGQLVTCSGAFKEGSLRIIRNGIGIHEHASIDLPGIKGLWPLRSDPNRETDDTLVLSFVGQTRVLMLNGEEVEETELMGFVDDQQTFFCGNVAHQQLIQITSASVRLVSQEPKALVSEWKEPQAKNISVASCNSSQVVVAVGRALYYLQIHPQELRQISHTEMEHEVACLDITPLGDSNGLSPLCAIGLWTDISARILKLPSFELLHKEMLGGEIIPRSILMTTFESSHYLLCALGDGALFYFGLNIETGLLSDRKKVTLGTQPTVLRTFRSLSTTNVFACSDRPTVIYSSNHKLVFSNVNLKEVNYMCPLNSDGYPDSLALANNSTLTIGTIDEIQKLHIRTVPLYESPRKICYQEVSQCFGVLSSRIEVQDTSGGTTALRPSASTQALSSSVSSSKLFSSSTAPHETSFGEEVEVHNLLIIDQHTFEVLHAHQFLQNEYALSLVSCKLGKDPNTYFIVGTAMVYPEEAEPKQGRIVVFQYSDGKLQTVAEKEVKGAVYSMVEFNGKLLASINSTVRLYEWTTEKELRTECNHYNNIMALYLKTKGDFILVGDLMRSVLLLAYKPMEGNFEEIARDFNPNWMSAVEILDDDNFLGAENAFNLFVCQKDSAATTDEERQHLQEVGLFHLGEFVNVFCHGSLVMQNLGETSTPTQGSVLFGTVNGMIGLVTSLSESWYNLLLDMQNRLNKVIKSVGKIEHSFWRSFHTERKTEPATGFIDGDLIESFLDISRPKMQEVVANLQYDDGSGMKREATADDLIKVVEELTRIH

Compound | logk′80 [1] | DC50 (CDK9) [nM] | IC50 (MOLM13 cells; cytotoxicity) [nM] | Solubility (Kinetic solubility assay) [µM] | IC50 (MOLM13 cells; [2]) [nM] | solubility at 1.5 h (Kinetic solubility assay) [µM]
COc1cc(F)ccc1-c1cc(Nc2cc(CS(C)(=O)=NC(=O)CN3CCC(c4cn(C5CN(c6cccc7c6C(=O)N(C6CCC(=O)NC6=O)C7=O)C5)nn4)CC3)ccn2)ncc1F (stereo not drawn) [Compound 4.60, 2-(4-(1-(1-(2-(2,6-dioxopiperidin-3-yl)-1,3-dioxoisoindolin-4-yl)azetidin-3-yl)-1H-1,2,3-triazol-4-yl)piperidin-1-yl)-N-(((2-((5-fluoro-4-(4-fluoro-2-methoxyphenyl)pyridin-2-yl)amino)pyridin-4-yl)methyl)(methyl)(oxo)-16-sulfaneylidene)acetamide] | 0.16 | 1660 | 1910 | 4.1 (≈ 3.72 µg/mL) |  | 
COc1cc(F)ccc1-c1cc(Nc2cc(CS(C)(=O)=NC(=O)C3CCCN(Cc4cn(CC(=O)N5CCN(CCCc6cccc7c6C(=O)N(C6CCC(=O)NC6=O)C7=O)CC5)nn4)C3)ccn2)ncc1F (stereo not drawn) [Compound 4.73, 1-({1-[2-(4-{3-[2-(2,6-dioxopiperidin-3-yl)-1,3-dioxo-2,3-dihydro-1H-isoindol-4-yl]propyl}piperazin-1-yl)-2-oxoethyl]-1H-1,2,3-triazol-4-yl}methyl)-N-{[1 (2-{[5-fluoro-4-(4-fluoro-2-methoxyphenyl)pyridin-2-yl]amino}pyridin-4-yl)methyl](methyl)oxo-λ^6-sulfanylidene}piperidine-3-carboxamide] | 0.13 | 2630 |  |  | 700 | 3.5 (≈ 3.57 µg/mL)
COc1cc(F)ccc1-c1cc(Nc2cc(CS(C)(=O)=NC(=O)CN3CCN(Cc4cn(CC(=O)N5CCN(CC#Cc6cccc7c6C(=O)N(C6CCC(=O)NC6=O)C7=O)CC5)nn4)CC3)ccn2)ncc1F (stereo not drawn) [Compound 4.51, 2-(4-((1-(2-(4-(3-(2-(2,6-dioxopiperidin-3-yl)-1,3-dioxoisoindolin-4-yl)prop-2-yn-1-yl)piperazin-1-yl)-2-oxoethyl)-1H-1,2,3-triazol-4-yl)methyl)piperazin-1-yl)-N-(((2-((5-fluoro-4-(4-fluoro-2-methoxyphenyl)pyridin-2-yl)amino)pyridin-4-yl)methyl)(methyl)(oxo)-16-sulfaneylidene)acetamide] | 0.09 | 370 | 1540 | 14.8 (≈ 15.3 µg/mL) |  | 
COc1cc(F)ccc1-c1cc(Nc2cc(CS(C)(=O)=NC(=O)CN3CCC(c4cn(CC5CCN(c6cccc7c6C(=O)N(C6CCC(=O)NC6=O)C7=O)CC5)nn4)CC3)ccn2)ncc1F (stereo not drawn) [Compound 4.76, 2-{[4-[1-({1-[2-(2,6-dioxopiperidin-3-yl)-1,3-dioxo-2,3-dihydro-1H-isoindol-4-yl]piperidin-4-yl}methyl)-1H-1,2,3-triazol-4-yl]piperidin-1-yl}-N-{[2-{[5-fluoro-4-(4-fluoro-2-methoxyphenyl)pyridin-2-yl]amino}pyridin-4-yl)methyl](methyl)oxoλ^6-sulfanylidene}acetamide] | 0.19 | 240 | 300 | 4.7 (≈ 4.47 µg/mL) |  | 
COc1cc(F)ccc1-c1cc(Nc2cc(CS(C)(=O)=NC(=O)C3CCCN(Cc4cn(CC(=O)N5CCC(C#Cc6cccc7c6C(=O)N(C6CCC(=O)NC6=O)C7=O)CC5)nn4)C3)ccn2)ncc1F (stereo not drawn) [Compound 4.75, 1-({1-[2-(4-{2-[2-(2,6-dioxopiperidin-3-yl)-1,3-dioxo-2,3-dihydro-1H-isoindol-4-yl]ethynyl}piperidin-1-yl)-2-oxoethyl]-1H-1,2,3-triazol-4-yl}methyl)-N-{[1 (2-{[5-fluoro-4-(4-fluoro-2-methoxyphenyl)pyridin-2-yl]amino}pyridin-4-yl)methyl](methyl)oxo-λ^6-sulfanylidene}piperidine-3-carboxamide] | 0.18 | 1620 |  |  | 1480 | 4.8 (≈ 4.81 µg/mL)
COc1cc(F)ccc1-c1cc(Nc2cc(CS(C)(=O)=NC(=O)CCC(=O)N3CC(N4CCC(Cn5cc(CNC(=O)CNc6cccc7c6C(=O)N(C6CCC(=O)NC6=O)C7=O)nn5)CC4)C3)ccn2)ncc1F (stereo not drawn) [Compound 4.90, 4-{3-[4-({4-[(2˜ {[2˜ (2,6-dioxopiperidin-3-yl)-1,3-dioxo-2,3-dihydro-1H-isoindol-4-yl]amino}acetamido)methyl]-1H-1,2,3-triazol-1-yl}methyl)piperidin-1-yl]azetidin-1-yl}-N-{[(2-{[5-fluoro-4-(4-fluoro-2-methoxyphenyl)pyridin-2-yl]amino}pyridin-4-yl)methyl](methyl)oxo-λ^6-sulfanylidene}-4-oxobutanamide] | 0.07 | 900 |  |  | 1380 | 8.3 (≈ 8.72 µg/mL)
COc1cc(F)ccc1-c1cc(Nc2cc(CS(C)(=O)=NC(=O)CN3CCN(Cc4cn(CCCOc5cccc6c5C(=O)N(C5CCC(=O)NC5=O)C6=O)nn4)CC3)ccn2)ncc1F (stereo not drawn) [Compound 4.39, 2-(4-((1-(3-((2-(2,6-dioxopiperidin-3-yl)-1,3-dioxoisoindolin-4-yl)oxy)propyl)-1H-1,2,3-triazol-4-yl)methyl)piperazin-1-yl)-N-(((2-((5-fluoro-4-(4-fluoro-2-methoxyphenyl)pyridin-2-yl)amino)pyridin-4-yl)methyl)(methyl)(oxo)-16-sulfaneylidene)acetamide] | 0.10 | 640 |  |  | 830 | 26.5 (≈ 24.5 µg/mL)
1-((1-(1-((2-(2,6-dioxopiperidin-3-yl)-1,3-dioxoisoindolin-4-yl)glycyl)azetidin-3-yl)-1H-1,2, 3-triazol-4-yl)methyl)-N-(((2-((5-fluoro˜4-(4-fluoro-2-methoxyphenyl)pyridin-2-yl)amino)pyridin-4-yl)methyl)(methyl)(oxo)-16-sulfaneylidene)piperidine-3-carboxamide [Compound 4.63] | 0.19 | 460 | 550 | 10.8 |  | 
COc1cc(F)ccc1-c1cc(Nc2cc(CS(C)(=O)=NC(=O)CCC(=O)N3CC(N4CCC(Cn5cc(COc6cccc7c6C(=O)N(C6CCC(=O)NC6=O)C7=O)nn5)CC4)C3)ccn2)ncc1F (stereo not drawn) [Compound 4.91] | 0.09 | 260 |  |  | 590 | 3.8 (≈ 3.78 µg/mL)
COc1cc(F)ccc1-c1cc(Nc2cc(CS(C)(=O)=NC(=O)CN3CCC(COc4cccc5c4C(=O)N(C4CCC(=O)NC4=O)C5=O)CC3)ccn2)ncc1F (stereo not drawn) [Compound 4.79, 2-[4-({[2-(2,6-dioxopiperidin-3-yl)-1,3-dioxo-2,3-dihydro-1H-isoindol-4-yl]oxy}methyl)piperidin-1-yl]-N-{[(2-{[5˜fluoro-4-(4-fluoro-2-methoxyphenyl)pyridin-2-yl]amino}pyridin-4-yl)methyl](methyl)oxo-26-sulfanylidene}acetamide] | 0.20 | 360 |  |  | 190 | 3.1 (≈ 2.53 µg/mL)
COc1cc(F)ccc1-c1cc(Nc2cc(CS(C)(=O)=NC(=O)CCc3cn(CC4CCN(C5CN(C(=O)CNc6cccc7c6C(=O)N(C6CCC(=O)NC6=O)C7=O)C5)CC4)nn3)ccn2)ncc1F (stereo not drawn) [Compound 4.89, 3-(1-((1-(1-((2-(2,6-dioxopiperidin-3-yl)-1,3-dioxoisoindolin-4-yl)glycyl)azetidin-3-yl)piperidin-4-yl)methyl)-1H-1,2,3-triazol-4-yl)-N-(((2-((5-fluoro-4-(4-fluoro-2-methoxyphenyl)pyridin-2-yl)amino)pyridin-4-yl)methyl)(methyl) (oxo)-26-sulfaneylidene) propanamide] | 0.09 | 80 |  |  | 170 | 1.8 (≈ 1.79 µg/mL)
COc1cc(F)ccc1-c1cc(Nc2cc(CS(C)(=O)=NC(=O)C3CCCN(Cc4cn(CC(=O)N5CCN(CC#Cc6cccc7c6C(=O)N(C6CCC(=O)NC6=O)C7=O)CC5)nn4)C3)ccn2)ncc1F (stereo not drawn) [Compound 4.64, 1-((1-(2-(4-(3-(2-(2,6-dioxopiperidin-3-yl)-1,3-dioxoisoindolin-4-yl)prop-2-yl-1-yl)piperazin-1-yl)-2-oxoethyl)-1H-1,2,3-triazol-4-yl)methyl)-N-(((2-((5-fluoro-4-(4-fluoro-2-methoxyphenyl)pyridin-2-yl)amino)pyridin-4-yl)methyl)(methyl)(oxo)-16-sulfaneylidene)piperidine-3-carboxamide] | 0.14 | 780 | 850 | 33.0 (≈ 33.6 µg/mL) |  | 
